The record followed here is US8106055B2, “Substituted amide compounds” (Gruenenthal GmbH, priority 2007, dated 2012).

Experiment [1] has as its target T1, bradykinin 1 receptor (B1R) of the rat (Rattus norvegicus, UniProt P97583).
T1 construct: expressed in transfected cells; host or cells: CHO K1 cells
T1 sequence (P97583 1-337): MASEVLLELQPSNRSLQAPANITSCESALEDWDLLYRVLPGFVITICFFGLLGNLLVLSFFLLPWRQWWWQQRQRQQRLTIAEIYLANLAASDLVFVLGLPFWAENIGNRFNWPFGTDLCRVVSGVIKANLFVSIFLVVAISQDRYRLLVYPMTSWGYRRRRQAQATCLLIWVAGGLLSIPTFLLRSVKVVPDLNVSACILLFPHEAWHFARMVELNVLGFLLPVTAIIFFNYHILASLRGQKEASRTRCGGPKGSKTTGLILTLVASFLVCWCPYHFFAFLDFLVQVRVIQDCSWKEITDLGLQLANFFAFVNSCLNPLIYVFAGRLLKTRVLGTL
In words: Functional investigation on the rat bradykinin 1 receptor (B1R), Ca2+ FLIPR assay in CHO K1 rB1R cells. The experiment is classed as cell-based. The following applies: B1R antagonism rat; test substance 10 μM; Ca2+ FLIPR, CHO K1 rB1R cells. In a few lines:
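Stably transfected CHO K1 cells loaded with Fluo-4; FLIPR Ca2+ fluorescence peak (ex 488/em 540 nm). Compound added first (agonism vs Lys-Des-Arg9-bradykinin ≥50 nM human, Des-Arg9-bradykinin 10 μM rat), then after 10-20 min agonist at EC80; antagonism as % inhibition, IC50 from concentration series, n=2-3, N≥2.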

For a further experiment, the target named is T2, human μ opiate receptor (Homo sapiens, UniProt P35372).
T2 construct: purchased PerkinElmer Life Sciences, Zaventem, Belgium RB-HOM; host or cells: CHO-K1 cells (membrane preparation)
Nature of the experiment: Affinity for the human μ opiate receptor ([3H]-naloxone displacement, CHO-K1 receptor membrane preparation, SPA). The experiment is classed as binding. The settings on record: test concentration of 1 μM. The essentials:
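CHO-K1 membranes expressing human μ receptor incubated 90 min at room temperature with 1 nmol/l [3H]-naloxone and WGA-SPA beads in 50 mmol/l Tris-HCl, 0.06% BSA; 100 μmol/l naloxone defines non-specific binding. Values are % inhibition of specific binding at 1 μM; IC50 converted to Ki by Cheng-Prusoff.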

T2 sequence (P35372 whole entry): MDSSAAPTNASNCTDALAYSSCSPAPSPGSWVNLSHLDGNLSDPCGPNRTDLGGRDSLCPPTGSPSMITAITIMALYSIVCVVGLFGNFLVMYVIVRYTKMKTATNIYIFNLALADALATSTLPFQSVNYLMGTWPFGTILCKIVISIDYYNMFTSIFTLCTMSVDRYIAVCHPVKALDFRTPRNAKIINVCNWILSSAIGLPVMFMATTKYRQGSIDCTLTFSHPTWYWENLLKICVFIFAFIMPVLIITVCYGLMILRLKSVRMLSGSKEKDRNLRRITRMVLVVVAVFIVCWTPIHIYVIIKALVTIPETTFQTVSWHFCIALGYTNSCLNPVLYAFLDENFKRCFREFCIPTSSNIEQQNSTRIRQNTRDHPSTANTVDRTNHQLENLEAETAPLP

Take `COc1cc(C)c(S(=O)(=O)N2CCCC(OCC(=O)NCC3CCC(C(CCc4ccccc4)N(C)C)CC3)C2)c(C)c1C` (stereo not shown) [Example 551]: the “B1R Ant. r [10 μM] % Inhibition” value in experiment [1] was 36%. In addition, the “μ (binding on the μ opioid receptor, % inhibition)” value at human μ opiate receptor is 35%.

As to `CN(C)C(CCc1ccccc1)C1CCC(CNC(=O)COC2CCN(S(=O)(=O)c3cccc(C(F)(F)F)c3)C2)CC1` (stereo not shown) [Example 552], the “B1R Ant. r [10 μM] % Inhibition” value in experiment [1] is 26%. On human μ opiate receptor, the “μ (binding on the μ opioid receptor, % inhibition)” value worked out at 23%.

Regarding `CN(C)C(c1ccc(F)cc1)C1CCC(CCNC(=O)COC2CCN(S(=O)(=O)c3ccccc3)CC2)CC1` (stereo not shown) [Example 553], the “B1R Ant. r [10 μM] % Inhibition” value in experiment [1] is −14%. Also, the “μ (binding on the μ opioid receptor, % inhibition)” value on human μ opiate receptor stood at 26%.

As to `COc1cc(C)c(S(=O)(=O)N(CCOCC(=O)NCCC2CCC(C(c3ccc(F)cc3)N(C)C)CC2)Cc2ccccc2)c(C)c1C` (stereo not shown) [Example 554], in experiment [1], the “B1R Ant. r [10 μM] % Inhibition” value is reported as −11%. Also, at human μ opiate receptor, the “μ (binding on the μ opioid receptor, % inhibition)” value is given as 28%.

As to `COc1ccc(S(=O)(=O)N2CCCCC2COCC(=O)NC2CCC(C(c3ccc(F)cc3)N(C)C)CC2)cc1OC` (stereo not shown) [Example 555], the “B1R Ant. r [10 μM] % Inhibition” value in experiment [1] stood at 0%. Moreover, the “μ (binding on the μ opioid receptor, % inhibition)” value on human μ opiate receptor was determined as 23%.

As to `CN(C)C(CCc1ccccc1)C1CCC(CNC(=O)COCCN(C)S(=O)(=O)c2cccc(C(F)(F)F)c2)CC1` (stereo not shown) [Example 556], the “B1R Ant. r [10 μM] % Inhibition” value in experiment [1] is 20%. Also, on human μ opiate receptor, the “μ (binding on the μ opioid receptor, % inhibition)” value amounted to 27%.

Consider `CN(C)C(CCc1ccccc1)C1CCC(CNC(=O)COC2CCN(S(=O)(=O)c3ccc(Cl)cc3)C2)CC1` (stereo not shown) [Example 557], for which the “B1R Ant. r [10 μM] % Inhibition” value in experiment [1] is 29%. For the same molecule, at human μ opiate receptor, the “μ (binding on the μ opioid receptor, % inhibition)” value was 26%.

Regarding `CN(C)C(CCc1ccccc1)C1CCC(CNC(=O)COC2CCCN(S(=O)(=O)c3ccccc3)C2)CC1` (stereo not shown) [Example 558], in experiment [1], the “B1R Ant. r [10 μM] % Inhibition” value worked out at 12%. Moreover, on human μ opiate receptor, the “μ (binding on the μ opioid receptor, % inhibition)” value came to 29%.

For `COc1ccc(S(=O)(=O)N2CCCCC2COCC(=O)NCC2CCC(C(CCc3ccccc3)N(C)C)CC2)cc1OC` (stereo not shown) [Example 559], the “B1R Ant. r [10 μM] % Inhibition” value in experiment [1] is listed as −12%. Also, the “μ (binding on the μ opioid receptor, % inhibition)” value on human μ opiate receptor (1 µM) stood at 14%.

In the case of `COc1cc(C)c(S(=O)(=O)N(CCOCC(=O)NCC2CCC(C(c3ccc(Cl)cc3)N(C)C)CC2)Cc2ccccc2)c(C)c1C` (stereo not shown) [Example 560], the “B1R Ant. r [10 μM] % Inhibition” value in experiment [1] is reported as −5%. The “μ (binding on the μ opioid receptor, % inhibition)” value on human μ opiate receptor is 22%.

With `COc1cc(C)c(S(=O)(=O)N2CCC(CCOCC(=O)NCCC3CCC(C(c4ccc(Cl)cc4)N(C)C)CC3)CC2)c(C)c1C` (stereo not shown) [Example 561], the “B1R Ant. r [10 μM] % Inhibition” value in experiment [1] is recorded as −12%. Moreover, the “μ (binding on the μ opioid receptor, % inhibition)” value on human μ opiate receptor was 26%.

Consider `COc1cc(C)c(S(=O)(=O)N(CCOCC(=O)NCC2CCC(C(CCc3ccccc3)N(C)C)CC2)Cc2ccccc2)c(C)c1C` (stereo not shown) [Example 562], for which the “B1R Ant. r [10 μM] % Inhibition” value in experiment [1] is listed as 23%. For the same molecule, the “μ (binding on the μ opioid receptor, % inhibition)” value at human μ opiate receptor is 23%.

Turning to `COc1cc(C)c(S(=O)(=O)N(CCOCC(=O)NCC2CCC(C(c3ccc(F)cc3)N(C)C)CC2)Cc2ccccc2)c(C)c1C` (stereo not shown) [Example 563], in experiment [1], the “B1R Ant. r [10 μM] % Inhibition” value was −16%. In addition, the “μ (binding on the μ opioid receptor, % inhibition)” value on human μ opiate receptor was 25%.

Regarding `COc1cc(C)c(S(=O)(=O)N2CCC(OCC(=O)NCC3CCC(C(CCc4ccccc4)N(C)C)CC3)C2)c(C)c1` (stereo not shown) [Example 565], the “B1R Ant. r [10 μM] % Inhibition” value in experiment [1] was determined as 104%. Moreover, on human μ opiate receptor, the “μ (binding on the μ opioid receptor, % inhibition)” value amounted to 20%.

With `COc1ccc(S(=O)(=O)N2CCC(OCC(=O)NCC3CCC(C(CCc4ccccc4)N(C)C)CC3)C2)cc1OC` (stereo not shown) [Example 566], the “B1R Ant. r [10 μM] % Inhibition” value in experiment [1] is 22%. Besides, the “μ (binding on the μ opioid receptor, % inhibition)” value on human μ opiate receptor is reported as 19%.

In the case of `CN(C)C(CCc1ccccc1)C1CCC(CNC(=O)COCCN(C)S(=O)(=O)c2ccc(OC(F)(F)F)cc2)CC1` (stereo not shown) [Example 567], in experiment [1], the “B1R Ant. r [10 μM] % Inhibition” value turned out to be 42%. Further, on human μ opiate receptor, the “μ (binding on the μ opioid receptor, % inhibition)” value is 23%.

As to `CN(C)C(c1ccc(F)cc1)C1CCC(CNC(=O)COC2CCN(S(=O)(=O)c3ccccc3)CC2)CC1` (stereo not shown) [Example 568], in experiment [1], the “B1R Ant. r [10 μM] % Inhibition” value was 12%. For the same molecule, the “μ (binding on the μ opioid receptor, % inhibition)” value at human μ opiate receptor turned out to be 11%.
